Read-outs that look alike come from different tables or passages of the source.
What was measured:
[1] = test system: gastric cancer line MKN45 cells;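 further: MKN45 cell viability read as CellTiter-Glo luminescence after 72 h culture at 37 °C under 5% CO2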
Protocol: (§1) 7) Using complete cell medium, adjust the volume of the suspension to achieve a cell concentration.
(§2) Solid compound of cis-platinum was solubilized in PBS to a stock solution of 3.333 mM.
(§3) Final volume is 100 µL per well at this point.
(§4) 1) Incubate the plates at room temperature and away from light for 30 minutes.
(§5) 3) Add 100 µL /well of CellTiter-Glo® Reagent in each well. Avoid light.
(§6) 4) Mix contents for 2 minutes on an orbital shaker.
(§7) 5) Incubate plate at room temperature for 10 minutes to stabilize the luminescent signal.

[2] = test system: gastric cancer line MKN45 cells; assay: CTG (CellTiter-Glo) cell viability assay, 6×6 combo matrix, 72 h, MKN45;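 further: MKN45 cell viability read as CellTiter-Glo luminescence after 72 h culture at 37 °C under 5% CO2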
Protocol: as §1, §2, §3, §4, §5, §6, §7

[3] = test system: pancreatic cancer line Capan-1 cells; assay: CTG (CellTiter-Glo) cell viability assay, 6×6 combo matrix, 72 h, Capan-1; assay type: cell-based; conditions: for Relatively Cell inhibition of vehicle control(%): Capan-1
Protocol: To measure the cell inhibition effect of compounds and synergy effect of test articles on ten (10) cell lines using standard CTG assay.
b. A549, T47D, SK-OV-3, MKN45, SK-Hep-1, HT-29, Capan-1, 786-O and LNCaP cell line, for compounds and vehicle groups, the seeding density of cell lines is 3000 cells/80 µL per well. For blank groups, add 100 µL medium. For PBS groups, add 100 µL PBS.
8) Incubate the U87MG, A549, T47D, SK-OV-3, MKN45, SK-Hep-1, HT-29, Capan-1, 786-O and LNCaP cells overnight at 37° C./5% CO2.
5) Incubate the plates at 37° C./5% CO2 for 72 hours.
6) Read plates in Envision.

[4] = test system: glioblastoma line U87MG cells;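 further: U87MG cells seeded at 2000 per well, exposed 72 h, viability read by CellTiter-Glo luminescence, inhibition expressed relative to vehicle-treated wells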
[5] = test system: lung adenocarcinoma line A549 cells;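 further: luminescent ATP readout with CellTiter-Glo after compound exposure, used to assess growth inhibition and combination synergy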
[6] = Homo sapiens, CAPAN-1, read-out: Relatively Cell inhibition of vehicle control
[7] = Homo sapiens, CAPAN-1, read-out: inhibition rate

CC[C@@]1(O)C(=O)OCc2c1cc1n(c2=O)Cc2cc3c(CN(C)C)c(O)ccc3nc2-1 [topotecan]
inhibition [1]: 14.9%
Relatively Cell inhibition of vehicle control(%) ([2]; Top 16 nM only (Myr 0)): 27.49%
Relatively Cell inhibition of vehicle control(%) ([2]; Top 80 nM only (LB-1 0)): 48.98%
Relatively Cell inhibition of vehicle control(%) ([2]; Top 80 nM only (Myr 0)): 53.47%
Relatively Cell inhibition of vehicle control(%) ([2]; Top 400 nM only (LB-1 0)): 84.58%
Relatively Cell inhibition of vehicle control(%) ([2]; Top 400 nM only (Myr 0)): 85.99%
Relatively Cell inhibition of vehicle control(%) ([2]; Top 2000 nM only (LB-1 0)): 91.55%
Relatively Cell inhibition of vehicle control(%) ([2]; Top 2000 nM only (Myr 0)): 92.29%
Relatively Cell inhibition of vehicle control(%) ([2]; Top 10000 nM only (LB-1 0)): 89.36%
Relatively Cell inhibition of vehicle control(%) ([2]; Top 10000 nM only (Myr 0)): 91.07%
inhibition at […] ([3]; Homo sapiens, CAPAN-1, topotecan 16 nM only, read-out: Relatively Cell inhibition of vehicle control): 21%
inhibition at 0.08 µM ([3]; Homo sapiens, CAPAN-1, topotecan 80 nM only, read-out: Relatively Cell inhibition of vehicle control): 53.9%
inhibition at 0.4 µM ([3]; Homo sapiens, CAPAN-1, topotecan 400 nM only, read-out: Relatively Cell inhibition of vehicle control): 74.3%
inhibition at 2 µM ([3]; Homo sapiens, CAPAN-1, topotecan 2000 nM only, read-out: Relatively Cell inhibition of vehicle control): 88.4%
inhibition at 10 µM ([3]; Homo sapiens, CAPAN-1, topotecan 10000 nM only, read-out: Relatively Cell inhibition of vehicle control): 78.1%
Relatively Cell inhibition of vehicle control(%) ([3]; Top 16 nM only): 13.17%
Relatively Cell inhibition of vehicle control(%) ([3]; Top 80 nM only): 54.35%
Relatively Cell inhibition of vehicle control(%) ([3]; Top 400 nM only): 74.56%
Relatively Cell inhibition of vehicle control(%) ([3]; Top 2000 nM only): 88.92%
Relatively Cell inhibition of vehicle control(%) ([3]; Top 10000 nM only): 81.26%

COc1cccc2c1C(=O)c1c(O)c3c(c(O)c1C2=O)C[C@@](O)(C(=O)CO)C[C@@H]3O[C@H]1C[C@H](N)[C@H](O)[C@H](C)O1 [doxorubicin]
inhibition at 0.08 µM [3, 6]: 44.8%
inhibition at 0.4 µM [3, 6]: 68%
inhibition at 2 µM [3, 6]: 86.9%
inhibition at 10 µM [3, 6]: 74.9%
inhibition [4]: 27.5%

CC(=O)O[C@H]1C(=O)[C@@]2(C)[C@H]([C@H](OC(=O)c3ccccc3)[C@]3(O)C[C@H](OC(=O)[C@H](O)[C@@H](NC(=O)c4ccccc4)c4ccccc4)C(C)=C1C3(C)C)[C@]1(OC(C)=O)CO[C@@H]1C[C@@H]2O [taxol, paclitaxel]
inhibition [5]: 13.7%
inhibition [1]: 35.1%
Relatively Cell inhibition of vehicle control(%) ([2]; Tax 8 nM only (LB-1 0)): 52.04%
Relatively Cell inhibition of vehicle control(%) ([2]; Tax 8 nM only (Myr 0)): 50.47%
Relatively Cell inhibition of vehicle control(%) ([2]; Tax 40 nM only (LB-1 0)): 48.11%
Relatively Cell inhibition of vehicle control(%) ([2]; Tax 40 nM only (Myr 0)): 56.30%
Relatively Cell inhibition of vehicle control(%) ([2]; Tax 200 nM only (LB-1 0)): 64.94%
Relatively Cell inhibition of vehicle control(%) ([2]; Tax 200 nM only (Myr 0)): 68.16%
Relatively Cell inhibition of vehicle control(%) ([2]; Tax 1000 nM only (LB-1 0)): 70.65%
Relatively Cell inhibition of vehicle control(%) ([2]; Tax 1000 nM only (Myr 0)): 69.93%
inhibition at […] ([3]; Homo sapiens, CAPAN-1, taxol 1.6 nM only, read-out: Relatively Cell inhibition of vehicle control): 17.2%
inhibition at 0.008 µM ([3]; Homo sapiens, CAPAN-1, taxol 8 nM only, read-out: Relatively Cell inhibition of vehicle control): 54.3%
inhibition at 0.04 µM ([3]; Homo sapiens, CAPAN-1, taxol 40 nM only, read-out: Relatively Cell inhibition of vehicle control): 65.8%
inhibition at 0.2 µM ([3]; Homo sapiens, CAPAN-1, taxol 200 nM only, read-out: Relatively Cell inhibition of vehicle control): 65.4%
inhibition at 1 µM ([3]; Homo sapiens, CAPAN-1, taxol 1000 nM only, read-out: Relatively Cell inhibition of vehicle control): 67.2%
Relatively Cell inhibition of vehicle control(%) ([3]; Tax 8 nM only): 51.97%
Relatively Cell inhibition of vehicle control(%) ([3]; Tax 40 nM only): 62.89%
Relatively Cell inhibition of vehicle control(%) ([3]; Tax 200 nM only): 63.24%
Relatively Cell inhibition of vehicle control(%) ([3]; Tax 1000 nM only): 64.00%
inhibition [4]: 5.92%

O=c1c(O)c(-c2cc(O)c(O)c(O)c2)oc2cc(O)cc(O)c12 [myricetin]
Relatively Cell inhibition of vehicle control(%) ([2]; Myr 0.8 µM only (Cis 0)): 5.96%
Relatively Cell inhibition of vehicle control(%) ([2]; Myr 0.8 µM only (Dox 0)): 1.79%
Relatively Cell inhibition of vehicle control(%) ([2]; Myr 0.8 µM only (Tax 0)): 0.13%
Relatively Cell inhibition of vehicle control(%) ([2]; Myr 0.8 µM only (Top 0)): -8.02%
Relatively Cell inhibition of vehicle control(%) ([2]; Myr 4 µM only (Cis 0)): 6.78%
Relatively Cell inhibition of vehicle control(%) ([2]; Myr 4 µM only (Dox 0)): 2.42%
Relatively Cell inhibition of vehicle control(%) ([2]; Myr 4 µM only (Tax 0)): -1.75%
Relatively Cell inhibition of vehicle control(%) ([2]; Myr 4 µM only (Top 0)): -4.89%
Relatively Cell inhibition of vehicle control(%) ([2]; Myr 20 µM only (Cis 0)): 14.42%
Relatively Cell inhibition of vehicle control(%) ([2]; Myr 20 µM only (Dox 0)): 13.04%
Relatively Cell inhibition of vehicle control(%) ([2]; Myr 20 µM only (Tax 0)): 5.06%
Relatively Cell inhibition of vehicle control(%) ([2]; Myr 20 µM only (Top 0)): 1.70%
Relatively Cell inhibition of vehicle control(%) ([2]; Myr 100 µM only (Cis 0), listed as Myr): 44.00%
Relatively Cell inhibition of vehicle control(%) ([2]; Myr 100 µM only (Dox 0)): 35.29%
Relatively Cell inhibition of vehicle control(%) ([2]; Myr 100 µM only (Tax 0)): 32.89%
Relatively Cell inhibition of vehicle control(%) ([2]; Myr 100 µM only (Top 0)): 29.93%
inhibition at 4 µM [3, 7]: 6.24%
inhibition at 100 µM [3, 7]: 23.3%
Relatively Cell inhibition of vehicle control(%) ([3]; Myr 4 pM only (topotecan matrix)): 0.67%
Relatively Cell inhibition of vehicle control(%) ([3]; Myr 20 pM only (doxorubicin matrix)): 11.98%
Relatively Cell inhibition of vehicle control(%) ([3]; Myr 20 pM only (topotecan matrix)): 5.10%
Relatively Cell inhibition of vehicle control(%) ([3]; Myr 100 pM only (doxorubicin matrix)): 30.94%
Relatively Cell inhibition of vehicle control(%) ([3]; Myr 0.8 µM only (cisplatin matrix)): 1.28%
Relatively Cell inhibition of vehicle control(%) ([3]; Myr 0.8 µM only (doxorubicin matrix)): 7.91%
Relatively Cell inhibition of vehicle control(%) ([3]; Myr 0.8 µM only (taxol matrix)): 3.71%
Relatively Cell inhibition of vehicle control(%) ([3]; Myr 0.8 µM only (topotecan matrix)): -6.16%
Relatively Cell inhibition of vehicle control(%) ([3]; Myr 4 µM only (cisplatin matrix)): 6.73%
Relatively Cell inhibition of vehicle control(%) ([3]; Myr 4 µM only (taxol matrix)): 7.41%
Relatively Cell inhibition of vehicle control(%) ([3]; Myr 20 µM only (cisplatin matrix)): 10.48%
Relatively Cell inhibition of vehicle control(%) ([3]; Myr 20 µM only (taxol matrix)): 9.11%
Relatively Cell inhibition of vehicle control(%) ([3]; Myr 100 µM only (cisplatin matrix)): 31.40%
Relatively Cell inhibition of vehicle control(%) ([3]; Myr 100 µM only (taxol matrix)): 30.66%

Source: US20230165831A1, “METHOD AND COMPOSITION FOR RENDERING CANCER CELLS SUSCEPTIBLE TO TREATMENT BY TARGETED ONCOGENETIC DRIVERS” (IMPACT BIOLIFE SCIENCE, INC., priority 2021, published 2023)
